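Values below derive from 48-hour exposures of cells grown in 96-well plates, with endpoints linearly interpolated between the two concentrations bracketing the appropriate inhibition level. TGI: concentration producing complete growth inhibition.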
What was measured:
Assay in all cases: inhibition of tumour cell growth, NCI panel, 48 h
786-0 renal = test system: 786-0 renal
A498 renal = test system: A498 renal
A549 NSCLC = test system: A549 NSCLC
ACHN renal = test system: ACHN renal
CAKI-1 renal = test system: CAKI-1 renal
CCRF-CEM leukemia = test system: CCRF-CEM leukemia
COLO 205 colon = test system: COLO 205 colon
DLD-1 colon = test system: DLD-1 colon
DMS 114 small cell lung = test system: DMS 114 small cell lung
DMS 273 small cell lung = test system: DMS 273 small cell lung
EKVX NSCLC = test system: EKVX NSCLC
HCC-2998 colon = test system: HCC-2998 colon
HCT-116 colon = test system: HCT-116 colon
HCT-15 colon = test system: HCT-15 colon
HL-60(TB) leukemia = test system: HL-60(TB) leukemia
HOP-18 NSCLC = test system: HOP-18 NSCLC
HOP-62 NSCLC = test system: HOP-62 NSCLC
HOP-92 NSCLC = test system: HOP-92 NSCLC
HT29 colon = test system: HT29 colon
IGROV1 ovarian = test system: IGROV1 ovarian
K-562 leukemia = test system: K-562 leukemia
KM12 colon = test system: KM12 colon
KM20L2 colon = test system: KM20L2 colon
LOX IMVI melanoma = test system: LOX IMVI melanoma
LXFL 529 NSCLC = test system: LXFL 529 NSCLC
M14 melanoma = test system: M14 melanoma
M19-MEL melanoma = test system: M19-MEL melanoma
MALME-3M melanoma = test system: MALME-3M melanoma
MOLT-4 leukemia = test system: MOLT-4 leukemia
NCI-H226 lung = test system: NCI-H226 lung
NCI-H23 lung = test system: NCI-H23 lung
NCI-H460 lung = test system: NCI-H460 lung
NCI-H522 lung = test system: NCI-H522 lung
OVCAR-3 ovarian = test system: OVCAR-3 ovarian
OVCAR-4 ovarian = test system: OVCAR-4 ovarian
OVCAR-5 ovarian = test system: OVCAR-5 ovarian
OVCAR-8 ovarian = test system: OVCAR-8 ovarian
RPMI-8226 leukemia = test system: RPMI-8226 leukemia
RXF 393 renal = test system: RXF 393 renal
RXF-631 renal = test system: RXF-631 renal
SF-268 CNS = test system: SF-268 CNS
SF-295 CNS = test system: SF-295 CNS
SF-539 CNS = test system: SF-539 CNS
SK-MEL-2 melanoma = test system: SK-MEL-2 melanoma
SK-MEL-5 melanoma = test system: SK-MEL-5 melanoma
SK-OV-3 ovarian = test system: SK-OV-3 ovarian
SN12C renal = test system: SN12C renal
SNB-19 CNS = test system: SNB-19 CNS
SNB-75 CNS = test system: SNB-75 CNS
SNB-78 CNS = test system: SNB-78 CNS
SR leukemia = test system: SR leukemia
SW-620 colon = test system: SW-620 colon
TK-10 renal = test system: TK-10 renal
U251 CNS = test system: U251 CNS
UACC-257 melanoma = test system: UACC-257 melanoma
UACC-62 melanoma = test system: UACC-62 melanoma
UO-31 renal = test system: UO-31 renal
XF 498 CNS = test system: XF 498 CNS
SK-MEL-28 melanoma = test system: SK-MEL-28 melanoma

Measured: TGI

C[Si](C)(C)/N=C1\N2C(=NC1(C(F)(F)F)C(F)(F)F)Sc1ccccc12
> 50 µM: 786-0 renal | A498 renal | A549 NSCLC | ACHN renal | CAKI-1 renal | CCRF-CEM leukemia | COLO 205 colon | DLD-1 colon | DMS 114 small cell lung | DMS 273 small cell lung | EKVX NSCLC | HCC-2998 colon | HCT-116 colon | HCT-15 colon | HL-60(TB) leukemia | HOP-18 NSCLC | HOP-62 NSCLC | HOP-92 NSCLC | HT29 colon | IGROV1 ovarian | K-562 leukemia | KM12 colon | KM20L2 colon | LOX IMVI melanoma | LXFL 529 NSCLC | M14 melanoma | M19-MEL melanoma | MALME-3M melanoma | MOLT-4 leukemia | NCI-H226 lung | NCI-H23 lung | NCI-H460 lung | NCI-H522 lung | OVCAR-3 ovarian | OVCAR-4 ovarian | OVCAR-5 ovarian | OVCAR-8 ovarian | RPMI-8226 leukemia | RXF 393 renal | RXF-631 renal | SF-268 CNS | SF-295 CNS | SF-539 CNS | SK-MEL-2 melanoma | SK-MEL-5 melanoma | SK-OV-3 ovarian | SN12C renal | SNB-19 CNS | SNB-75 CNS | SNB-78 CNS | SR leukemia | SW-620 colon | TK-10 renal | U251 CNS | UACC-257 melanoma | UACC-62 melanoma | UO-31 renal | XF 498 CNS

CC(=O)Nc1ccc(C2C(C(=O)Nc3ccccc3C)=C(C)NC(C)=C2C(=O)Nc2ccccc2C)cc1
> 100 µM: 786-0 renal | A498 renal | A549 NSCLC | ACHN renal | CAKI-1 renal | CCRF-CEM leukemia | COLO 205 colon | DLD-1 colon | DMS 114 small cell lung | DMS 273 small cell lung | EKVX NSCLC | HCC-2998 colon | HCT-116 colon | HCT-15 colon | HL-60(TB) leukemia | HOP-18 NSCLC | HOP-62 NSCLC | HOP-92 NSCLC | HT29 colon | IGROV1 ovarian | K-562 leukemia | KM20L2 colon | LOX IMVI melanoma | LXFL 529 NSCLC | M14 melanoma | M19-MEL melanoma | MALME-3M melanoma | NCI-H226 lung | NCI-H23 lung | NCI-H460 lung | NCI-H522 lung | OVCAR-3 ovarian | OVCAR-4 ovarian | OVCAR-5 ovarian | OVCAR-8 ovarian | RPMI-8226 leukemia | RXF 393 renal | RXF-631 renal | SF-268 CNS | SF-295 CNS | SF-539 CNS | SK-MEL-2 melanoma | SK-MEL-28 melanoma | SK-MEL-5 melanoma | SK-OV-3 ovarian | SN12C renal | SNB-19 CNS | SNB-75 CNS | SNB-78 CNS | SR leukemia | SW-620 colon | TK-10 renal | U251 CNS | UACC-257 melanoma | UACC-62 melanoma | UO-31 renal | XF 498 CNS
> 31.6 µM: KM12 colon
> 26.2 µM: MOLT-4 leukemia

Source: PubChem BioAssay (NCI)
